Broadly, the MIC50 is the lowest concentration that inhibits either 50% of growth or 50% of the strains tested, depending on the study. Read a low MIC50 as higher susceptibility. As a reminder, the MIC90 is an inhibitory concentration at the 90% level, which refers to growth in some studies and to a panel of isolates in others. Low readings indicate higher susceptibility, high ones lower susceptibility.

Converted amounts (≈) assume the structure as drawn. The source made the active and inactive calls. The calls are words filed in the database; no cut-off is given here.

The text below walks through data of ChEMBL document CHEMBL1687771 (Antimicrob Agents Chemother, 2010).

Assay [1] concerns Bacillus anthracis. The experiment in a line: Antimicrobial activity against Bacillus anthracis Ames by CLSI broth microdilution method. It counts as functional.
Assay [2] deals with Bacillus anthracis. Kind of assay: Antimicrobial activity against Bacillus anthracis Ames infected in BALB/c mouse anthrax spore inhalation infection model assessed as decrease in tissue bacterial burden at 50 mg/kg, sc bid for 14 days administered 24 hrs post bacterial challenge measured 43 days post bacterial challenge. It is filed as functional, organism-based. More on the design: dose 50 mg/kg.

The test system of assay [3] is Bacillus anthracis. The experiment in a line: Antimicrobial activity against Bacillus anthracis Ames infected in BALB/c mouse anthrax spore inhalation infection model assessed as decrease in tissue bacterial burden at 50 mg/kg, sc bid for 21 days administered 24 hrs post bacterial challenge measured 43 days post bacterial challenge. More on the design: dose 50 mg/kg. It counts as functional, organism-based.

Assay [4] has as its system Mus musculus. The experiment in a line: AUC in Bacillus anthracis Ames infected in BALB/c mouse anthrax spore inhalation infection model at 50 mg/kg, sc bid for 14 days administered 24 hrs post bacterial challenge. It counts as functional, organism-based. The arrangement: dose 50 mg/kg.
The subject of assay [5] is Mus musculus. Kind of assay: AUC at 24 hrs in Bacillus anthracis Ames infected in BALB/c mouse anthrax spore inhalation infection model at 50 mg/kg, sc bid for 14 days administered 24 hrs post bacterial challenge. It counts as functional, organism-based. More on the design: dose 50 mg/kg.

`CCCCCCCCCC(=O)N[C@@H](Cc1c[nH]c2ccccc12)C(=O)N[C@H](CC(N)=O)C(=O)N[C@@H](CC(=O)O)C(=O)N[C@@H]1C(=O)NCC(=O)N[C@@H](CCCN)C(=O)N[C@@H](CC(=O)O)C(=O)N[C@H](C)C(=O)N[C@@H](CC(=O)O)C(=O)NCC(=O)N[C@H](CO)C(=O)N[C@@H]([C@H](C)CC(=O)O)C(=O)N[C@@H](CC(=O)c2ccccc2N)C(=O)O[C@@H]1C`: the MIC50 against Bacillus anthracis [1] was 2 µg/mL (≈ 1.23 µM). The MIC90 in the assay on Bacillus anthracis [1] amounted to 4 µg/mL (≈ 2.47 µM). The result with Bacillus anthracis [2] and in the assay on Bacillus anthracis [3] was Active. The figures for the AUC in the assay on Mus musculus [4] and with Mus musculus [5] were over 375000 ng·h/mL and 750000 ng·h/mL, respectively.
